Assay results as given in patent US20070082858A1, “Methods and compositions for the prevention of toxic side effects of aminoglycoside medications” (priority 2004, published 2007).

Columns and labels:
[1] = system: bullfrog saccular hair cells; experiment: In vivo GTTR uptake in bullfrog saccule after lymph sac injection
Protocol: (§1) Gentamicin sulfate was conjugated to Texas Red (Molecular Probes) using published methods (1) to produce a 300:1 molar dilution of gentamicin-Texas Red conjugate (GTTR). Mice were injected sub-cutaneously with a single 300 mg/kg dose of GTTR. Frogs were injected directly into the lymph sac (there is no sub-cutaneous space in frogs, lymph sacs drain directly into the blood). Control animals received an equivalent dose of hydrolyzed Texas Red succinimidyl esters only.
At specific time-points (0.5, 1, 2, 3, 6, 7.5, 9 and 24 hours) following injection, animals were anesthetized and inner ear organs were excised and fixed in 4% formaldehyde overnight. After washing in PBS, frog and murine organs were permeabilized using ice-cold acetone, and all organs were labeled with Alexa-488-conjugated, or FITC-conjugated phalloidin to localize filamentous actin. Mouse and frog inner ear epithelia were whole-mounted and observed using a Bio-Rad MRC 1024 ES laser scanning confocal system attached to a Nikon Eclipse TE300 inverted microscope. Alexa-488 and Texas Red images were collected sequentially using 1024×1024 pixel box size using a 4× (n.a. 0.25) and a 60× lens (n.a. 1.4) with an xy resolution=230 nm and xz resolution=440 nm. All control organs were imaged at the same laser intensity and gain settings as treated organs.

[2] = system: cochlear hair cells; experiment: In vivo GTTR uptake in mouse cochlea after sub-cutaneous injection; design: species or system mice
Protocol: as §1
At specific time-points (0.5, 1, 2, 3, 6, 7.5, 9 and 24 hours) following injection, animals were anesthetized and inner ear organs were excised and fixed in 4% formaldehyde overnight. After washing in PBS, frog and murine organs were permeabilized using ice-cold acetone, and all organs were labeled with Alexa-488-conjugated, or FITC-conjugated phalloidin to localize filamentous actin. […]
For data analysis of murine samples, area intensity measurements of optically-sectioned hair cells (approximately 1-2 microns below the cuticular plate) were obtained from apical and basal cochlear regions (25 hair cells per row in each region). The mean basal intensity was divided by the mean apical intensity of an equivalent number of hair cells to derive a ratio that indicates the relative degree of fluorescence in basal hair cells compared to apical hair cells. […]

[3] = system: MDCK cells; experiment: GTTR uptake into MDCK cells under TRPV1 agonists/antagonists, cation channel blockers, cations and pH (30-60 seconds, 20° C., FATX fixation, confocal imaging); conditions: 75 μg/ml PIP2 added to 1 μg/ml GTTR in PBS, 1 minute
Source text: MDCK cells were used as a model system to test regulation of GTTR uptake by conditions known to produce or modify a cation current through the TRPV1 channel. Conditions tested were varying extracellular calcium concentrations, pH, specific agonists, specific antagonists, and the non-specific cation channel blocker Ruthenium Red. In addition, we pre-mixed PIP2 with GTTR to determine whether that anionic phospholipid, known to bind gentamicin, would alter GTTR uptake. All these assays were done at room temperature (20° C.), for 30 or 60 seconds, and using doses of GTTR of 5 to 10 μg/ml, which are far below the typical therapeutic level of <300 μg/ml. Buffers used for treatment were as described for each experiment. Cells were quickly washed to replace culture medium with treatment buffer, treated as indicated, washed again after treatment, fixed immediately with 4% formaldehyde and 0.5% Triton X-100 (FATX), and washed prior to imaging.
Methods: Cells were seeded into 8-well coverglass chambers at 3000 cells/well and grown for 5 days.
Cells were washed three times with the buffer to be used in the particular experiment, treated with GTTR and experimental variable for 30 or 60 seconds at 20° C., precluding endocytosis. Following treatment, cells were rinsed three times with buffer, then fixed and delipidated with 4% formaldehyde plus 0.5% Triton X-100 (FATX) for 45 minutes. Following fixation, cells were rinsed with PBS (Invitrogen, CA) for at least 4-6 times, or until foaming in the suction pipette ceased. In contrast to previous experiments, no FBS was present in the treatment media, allowing for more rapid uptake of the antibiotic-based GTTR.
MDCK cells were washed with Hank's buffered salt solution (HBSS; Invitrogen, CA), then placed into buffers of varying potassium concentrations. HBSS was mixed with equi-osmolar KCl/HBSS to produce the required K^+ concentrations. Cells were treated with 1 μg/mL GTTR for 1 minute, then washed and fixed as described above.
Cells were washed with PBS (Invitrogen, CA), then placed into buffers containing varying concentrations of calcium, obtained by mixing HBSS with equimolar CaCl2, each at pH 7.3. Cells were treated with 5 μg/mL of GTTR for 30 seconds, then washed and fixed as above.
Cells were washed with saline, then treated with 5 μg/mL of GTTR in saline buffers of varying pH for 30 seconds, then washed and fixed as above. Sodium hydroxide and hydrochloric acid were used to alter pH. These experiments were performed in three different saline buffers: (i) PBS (no calcium), (ii) a mixture of […] for a final calcium concentration of 0.32 mM, and (iii) a mixture of three parts PBS to one part HBSS for a final calcium concentration of 0.97 mM.
Cells were washed three times with Ca^++-free saline (0.9% NaCl), then treated with 5 μg/mL GTTR and one of the following for 30 seconds: TRPV1 agonists (resiniferatoxin [RTX]; or anandamide [AND]; Alexis Biochemicals, San Diego, Calif.); or antagonists (iodo-RTX, or SB 366791; Tocris, Ellisville, Mo.). Cells were then washed in saline and fixed as above.
Cells were washed three times with Ca^++-free 0.9% NaCl, then treated with 5 μg/mL GTTR and one of the following for 30 seconds: 100 μM Ruthenium Red, 100 μM Ruthenium Red plus one of the TRPV1 agonists or antagonists described above; or lanthanum (La^+++) at 0.5 or 5 mM.

[4] = PIP2 quenching of GTTR and TR fluorescence (fixed cells and 3-d scanning fluorescence spectroscopy); conditions: 1 mg/ml PIP2 for 1.5 hour, imaged in PIP2 solution; recovered after delipidation
Protocol: PIP2: Monolayer MDCK cells were grown in coverglass chambers as described above. After fixation, delipidation, washing and imaging (FIG. 27B), cells were treated with 1 mg/mL phosphatidylinositol-4,5-bisphosphate (PIP2, Echelon Biosciences, Salt Lake City, Utah) for 1.5 hours and re-imaged (FIG. 27E), prior to a second delipidation with 0.5% Triton, washing and imaging again (FIG. 27F).
Spectrophotometry: 3-d scanning fluorescence spectroscopy of solutions containing TR or GTTR with or without (PIP2) were performed using a Safire fluorescence microplate reader (Tecan, Research Triangle Park, N.C.). GTTR (100 μg/mL; weight as gentamicin in molecule) and PIP2 (155 μg/mL; approximately equimolar) were mixed vigorously in PBS solution and allowed to stand at room temperature for ½ hour prior to scanning. This was compared to the same concentration of GTTR alone in solution. Similar hydrolyzed Texas Red solutions (at the same concentration as the Texas Red moiety in GTTR solutions), with or without PIP2, were used as controls. Excitation and emission spectra were obtained over an excitation range of 570-604 nm (bandwidth 5 nm) and an emission range of 610-650 nm (bandwidth 5 nm).

Q: Which results are given for `O=S(=O)([O-])c1cc(S(=O)(=O)O)ccc1C1=c2cc3c4c(c2Oc2c1cc1c5c2CCCN5CCC1)CCC[N+]=4CCC3` [hydrolyzed TR, Texas Red]?
A: fluorescence in inner ear epithelia [1]: negligible fluorescence in their inner ear epithelia at all time points; fluorescence in inner ear epithelia [2]: negligible fluorescence in their inner ear epithelia at all time points

Q: For “phosphatidylinositol-4,5-bisphosphate [PIP2]”, which GTTR uptake [3] is on record?
A: The GTTR uptake was “large reduction in GTTR uptake”.

Q: What about the “GTTR fluorescence in FATX-fixed MDCK cells” value [4] of the same compound?
A: Its value is “clearly quenched the GTTR fluorescence”.
